Measured values reported in the supplement of paper PMC11061612.

Experiments:
[1] = system: LS-123 (Colorectal Carcinoma); assay: Bliss excess, mean over the matrix (fraction); higher = more synergy
Procedure, shortened: (§1)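 Cell lines grown in DMEM/F12 or RPMI with 10% FBS were plated in 1536-well plates and held 24 hours at 37°C, 5% CO2 before 72 hours of exposure to two-drug dose matrices, with DMSO typically at 0.2%. CellTiter-Glo 2.0 luminescence gave viability, which was converted to inhibition. Vehicle wells were set to 0 and blank wells to 1. Combination Emax is the second-highest inhibition in the matrix, and Bliss excess is the observed combination effect minus the expected EA + EB − EA·EB, where EA and EB are the single-agent effects.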

[2] = system: SAS (Oral Cavity Carcinoma); assay: as above
Procedure, shortened: as §1

[3] = system: SW1710 (Bladder Carcinoma); assay: as above
Procedure, shortened: as §1

[4] = system: BE-13 (T-Lymphoblastic Leukemia); assay: as above
Procedure, shortened: as §1

[5] = system: SNU-16 (Gastric Carcinoma); assay: as above
Procedure, shortened: as §1

A673 (Ewing's Sarcoma) [6] = assay: as above
Procedure, shortened: as §1

[7] = system: HH (T-Cell Non-Hodgkin's Lymphoma); assay: as above
Procedure, shortened: as §1

[8] = system: LNZTA3WT4 (Low Grade Glioma); assay: as above
Procedure, shortened: as §1

CAL-72 (Osteosarcoma) [9] = assay: as above
Procedure, shortened: as §1

[10] = system: ESS-1 (Other Solid Carcinomas); assay: as above
Procedure, shortened: as §1

EW-11 (Ewing's Sarcoma) [11] = assay: as above
Procedure, shortened: as §1

[12] = system: HuCCT1 (Biliary Tract Carcinoma); assay: as above
Procedure, shortened: as §1

[13] = system: NCI-H524 (Small Cell Lung Carcinoma); assay: as above
Procedure, shortened: as §1

[14] = system: KYAE-1 (Esophageal Adenocarcinoma); assay: as above
Procedure, shortened: as §1

MPP-89 (Mesothelioma) [15] = assay: as above
Procedure, shortened: as §1

[16] = system: OVCAR-5 (Ovarian Carcinoma); assay: as above
Procedure, shortened: as §1

KS-1 (Glioblastoma) [17] = assay: as above
Procedure, shortened: as §1

[18] = system: YAPC (Pancreatic Carcinoma); assay: as above
Procedure, shortened: as §1

LOXIMVI (Melanoma) [19] = assay: as above
Procedure, shortened: as §1

GAMG (Glioblastoma) [20] = assay: as above
Procedure, shortened: as §1

[21] = system: WSU-NHL (B-Cell Non-Hodgkin's Lymphoma); assay: as above
Procedure, shortened: as §1

[22] = system: SNU-449 (Hepatocellular Carcinoma); assay: as above
Procedure, shortened: as §1

[23] = system: TGBC1TKB (Biliary Tract Carcinoma); assay: as above
Procedure, shortened: as §1

[24] = system: LS-123 (Colorectal Carcinoma); assay: combination Emax (second highest fraction inhibited in the dose matrix, 72 h); higher = more inhibition; extreme values may be limits of the assay
Procedure, shortened: as §1

[25] = system: SAS (Oral Cavity Carcinoma); assay: as above
Procedure, shortened: as §1

[26] = system: SW1710 (Bladder Carcinoma); assay: as above
Procedure, shortened: as §1

[27] = system: BE-13 (T-Lymphoblastic Leukemia); assay: as above
Procedure, shortened: as §1

[28] = system: SNU-16 (Gastric Carcinoma); assay: as above
Procedure, shortened: as §1

A673 (Ewing's Sarcoma) [29] = assay: as above
Procedure, shortened: as §1

[30] = system: HH (T-Cell Non-Hodgkin's Lymphoma); assay: as above
Procedure, shortened: as §1

[31] = system: LNZTA3WT4 (Low Grade Glioma); assay: as above
Procedure, shortened: as §1

CAL-72 (Osteosarcoma) [32] = assay: as above
Procedure, shortened: as §1

[33] = system: ESS-1 (Other Solid Carcinomas); assay: as above
Procedure, shortened: as §1

EW-11 (Ewing's Sarcoma) [34] = assay: as above
Procedure, shortened: as §1

[35] = system: HuCCT1 (Biliary Tract Carcinoma); assay: as above
Procedure, shortened: as §1

[36] = system: NCI-H524 (Small Cell Lung Carcinoma); assay: as above
Procedure, shortened: as §1

[37] = system: KYAE-1 (Esophageal Adenocarcinoma); assay: as above
Procedure, shortened: as §1

MPP-89 (Mesothelioma) [38] = assay: as above
Procedure, shortened: as §1

[39] = system: OVCAR-5 (Ovarian Carcinoma); assay: as above
Procedure, shortened: as §1

KS-1 (Glioblastoma) [40] = assay: as above
Procedure, shortened: as §1

[41] = system: YAPC (Pancreatic Carcinoma); assay: as above
Procedure, shortened: as §1

LOXIMVI (Melanoma) [42] = assay: as above
Procedure, shortened: as §1

GAMG (Glioblastoma) [43] = assay: as above
Procedure, shortened: as §1

[44] = system: WSU-NHL (B-Cell Non-Hodgkin's Lymphoma); assay: as above
Procedure, shortened: as §1

[45] = system: SNU-449 (Hepatocellular Carcinoma); assay: as above
Procedure, shortened: as §1

[46] = system: TGBC1TKB (Biliary Tract Carcinoma); assay: as above
Procedure, shortened: as §1
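For Bliss excess, mean over the matrix in this document: after 72 h of two-drug dosing.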

Question: How did the Bliss excess [1] turn out when `C[C@@H](Oc1cc(-c2cnn(C3CCNCC3)c2)cnc1N)c1c(Cl)ccc(F)c1Cl` [Crizotinib] + Cn1cnc2c(F)c(Nc3ccc(Br)cc3Cl)c(C(=O)NOCCO)cc21 [Selumetinib] (first compound max 10 µM, 7x7, partner max 10 µM) was run?
Answer: Its Bliss excess is -0.0378.

Question: And the Bliss excess [2]?
Answer: The Bliss excess was -0.0073.

Question: And the Bliss excess [3]?
Answer: The Bliss excess was -0.0956.

Question: And the Bliss excess [4]?
Answer: Its Bliss excess is -0.0251.

Question: And the Bliss excess [5]?
Answer: Its Bliss excess is -0.0073.

Question: What about the Bliss excess (A673 (Ewing's Sarcoma) [6]) of the same molecule?
Answer: The Bliss excess was -0.0206.

Question: What about the Bliss excess [7] of the same molecule?
Answer: The Bliss excess was -0.0238.

Question: What about the Bliss excess [8] of the same molecule?
Answer: The Bliss excess was -0.0285.

Question: What about the Bliss excess (CAL-72 (Osteosarcoma) [9]) of the same molecule?
Answer: Its Bliss excess is -0.0411.

Question: What about the Bliss excess [10] of the same molecule?
Answer: Its Bliss excess is -0.0634.

Question: What about the Bliss excess (EW-11 (Ewing's Sarcoma) [11]) of the same molecule?
Answer: Its Bliss excess is -0.0627.

Question: And the Bliss excess [12]?
Answer: Its Bliss excess is -0.0516.

Question: What about the Bliss excess [13] of the same molecule?
Answer: The Bliss excess was -0.0449.

Question: And the Bliss excess [14]?
Answer: The Bliss excess was -0.0153.

Question: And the Bliss excess (MPP-89 (Mesothelioma) [15])?
Answer: The Bliss excess was -0.0078.

Question: And the Bliss excess [16]?
Answer: The Bliss excess was -0.0324.

Question: And the Bliss excess (KS-1 (Glioblastoma) [17])?
Answer: Its Bliss excess is 0.0483.

Question: And the Bliss excess [18]?
Answer: The Bliss excess was -0.0319.

Question: And the Bliss excess (LOXIMVI (Melanoma) [19])?
Answer: Its Bliss excess is -0.0068.

Question: And the Bliss excess (GAMG (Glioblastoma) [20])?
Answer: Its Bliss excess is -0.0308.

Question: What about the Bliss excess [21] of the same molecule?
Answer: Its Bliss excess is -0.0382.

Question: And the Bliss excess [22]?
Answer: The Bliss excess was -0.0665.

Question: What about the Bliss excess [23] of the same molecule?
Answer: Its Bliss excess is -0.0534.

Question: And the “combination Emax” value [24]?
Answer: The value was 0.62.

Question: And the “combination Emax” value [25]?
Answer: Its value is 0.781.

Question: What about the “combination Emax” value [26] of the same molecule?
Answer: The value was 0.381.

Question: What about the “combination Emax” value [27] of the same molecule?
Answer: The value was 0.974.

Question: What about the “combination Emax” value [28] of the same molecule?
Answer: Its value is 0.989.

Question: What about the “combination Emax” value (A673 (Ewing's Sarcoma) [29]) of the same molecule?
Answer: The value was 0.742.

Question: What about the “combination Emax” value [30] of the same molecule?
Answer: The value was 0.0931.

Question: And the “combination Emax” value [31]?
Answer: The value was 0.456.

Question: What about the “combination Emax” value (CAL-72 (Osteosarcoma) [32]) of the same molecule?
Answer: The value was 0.59.

Question: What about the “combination Emax” value [33] of the same molecule?
Answer: Its value is 0.773.

Question: And the “combination Emax” value (EW-11 (Ewing's Sarcoma) [34])?
Answer: Its value is 0.81.

Question: And the “combination Emax” value [35]?
Answer: The value was 0.725.

Question: And the “combination Emax” value [36]?
Answer: Its value is 0.983.

Question: And the “combination Emax” value [37]?
Answer: The value was 0.0881.

Question: What about the “combination Emax” value (MPP-89 (Mesothelioma) [38]) of the same molecule?
Answer: The value was 0.37.

Question: And the “combination Emax” value [39]?
Answer: The value was 0.7.

Question: What about the “combination Emax” value (KS-1 (Glioblastoma) [40]) of the same molecule?
Answer: The value was 0.646.

Question: And the “combination Emax” value [41]?
Answer: The value was 0.526.

Question: And the “combination Emax” value (LOXIMVI (Melanoma) [42])?
Answer: Its value is 0.926.

Question: And the “combination Emax” value (GAMG (Glioblastoma) [43])?
Answer: Its value is 0.54.

Question: And the “combination Emax” value [44]?
Answer: The value was 0.98.

Question: What about the “combination Emax” value [45] of the same molecule?
Answer: The value was 0.455.

Question: And the “combination Emax” value [46]?
Answer: Its value is 0.147.
